# Tests used:
# [1] = tested on: H1299; assay: MTT cytotoxicity GI50, H1299; type: cell-based; conditions: Homo sapiens, NCI-H1299
# Method: (§1) Cell proliferation was assessed by a MTT assay. Cancer cells were seeded in 96-well microtitre plates and, after overnight attachment, treated with GSTO1 inhibitors. After 72 h, MTT solution (3 mg ml^−1; 20 μl) was added to each well and cells were incubated for 3 h at 37 °C. After incubation, media from each well was removed and the dark blue formazan crystals formed by live cells were dissolved in DMSO (150 μl per well). The absorbance intensity was measured at 570 nm on a microplate reader (Molecular Devices, Sunnyvale, CA, USA). Cell viability after 24 h treatment was assessed using ApoTox-Glo triplex assay (Promega) according to the manufacturer's protocol. At least three independent dose–response experiments with each concentration tested in triplicate were performed for each cell line.
# [2] = tested on: HCT116 cells; assay: Clonogenic survival assay; type: cell-based, human
# Method: HCT116 cells were seeded at a density of 200 cells per well in a 6-well microtitre plate. After overnight attachment, cells were treated with different concentrations of GSTO1 inhibitors for 24 h. Colonies were allowed to grow in drug-free medium for 7 days and stained with 0.5% crystal violet. For drug combination studies, HCT116 cells (200 per well) were plated in a 12-well plate. C1-27, cisplatin (1 μM, dissolved in 0.9% NaCl), PD98059 (10 μM), LY294002 (10 μM), SP600125 (1 μM) or desferoxamine mesylate (10 μM) were added alone or in combination and colonies were allowed to grow for 7–10 days.
# [3] = tested on: BxPC3; assay: MTT cytotoxicity GI50, BxPC3; type: cell-based; conditions: Homo sapiens, BXPC-3
# Method: as §1
# [4] = tested on: H460; assay: MTT cytotoxicity GI50, H460; type: cell-based; conditions: Homo sapiens, NCI-H460
# Method: as §1
# [5] = tested on: THP-1 cells; assay: IL-1β secretion from LPS-primed THP-1 cells; type: cell-based; conditions: LPS-primed THP-1, 1.5 h, then ATP 5 mM 30 min, western blot
# Method: HCT116 cells were seeded in a six-well plate and treated with GSTO1 inhibitors for 24 h. Cells were washed with ice-cold PBS and lysed with a triple detergent lysis buffer supplemented with protease and phosphatase inhibitor cocktail. Lysate was sonicated and centrifuged at 12,000 r.p.m. for 10 min at 4 °C to remove cell debris. Total protein concentration in the supernatant was measured using BCA protein assay kit (Pierce Biotechnology). For IL-1β experiments, THP-1 cells (1 × 10^6 per well) were seeded in a 12-well plate and differentiated overnight with 10 nM phorbol myristate acetate. […] Band intensities were quantified using Image J software. […]
# Supplementary Fig. 23. […] (a) ATP-induced IL-1β secretion from LPS-stimulated THP-1 cells was analyzed by ELISA. […] Cytokine secretion level is expressed as a percentage of that released from control cells treated with DMSO. Data are mean readings of duplicate wells. […]
# treated with indicated concentrations of C1-27 or GLY (50 µM) for 1.5 h, followed by stimulation with ATP (5 mM) for 30 min. Concentrated supernatant was analyzed by western blotting using anti IL-1β antibody. […] Expression of pro- IL-1β in response to LPS was analyzed by western blotting. […] Representative plots of several gene expression datasets analyzed in Oncomine are shown. […]
# [6] = tested on: Panc-1; assay: MTT cytotoxicity GI50, Panc-1; type: cell-based; conditions: Homo sapiens, PANC-1
# Method: as §1
structure (smiles),measurement,setting,value
CN(C)S(=O)(=O)c1cc(NC(=O)CCl)ccc1Cl [C1-27],GI50,[1],1900 nM
same,effect on cisplatin-induced cytotoxicity,"[2]; combination with cisplatin, non-cytotoxic concentrations",significantly enhance
same,clonogenic survival of HCT116 cells,[2]; sub-micromolar concentrations,inhibited
same,GI50,[3],5.5 ± 1 µM
same,GI50,[4],3.3 µM
same,IL-1β release,[5],Dose-dependent inhibition
same,GI50,[6],1800 ± 100 nM

# Source: article PMC5059489, “Mechanistic evaluation and transcriptional signature of a glutathione S-transferase omega 1 inhibitor” (Nature Communications, 2016)
